Experimental data as given in patent US10413594B2, “Conjugates of somatostatin analogues” (ProLynx LLC, priority 2013, dated 2019).
Structures can show the parent of a compound that is named as a salt. Starred links: 1 amine or outer side, 2 acyl side, 3 side chain; linkers in the order of their positions; H or OH if unused. Non-standard residues stand in square brackets, D forms with d. Residues, ends and D or L forms follow the SMILES beside them. Groups on a side chain read outwards from the residue. *: point of attachment. Ethylenediamine = C(CN[*:2])N[*:1]; Hyp = O=C(O)[C@@H]1C[C@@H](O)CN1; Phg = N[C@H](C(=O)O)c1ccccc1; CO = O=C([*:1])[*:2]; Bn = c1ccc(C*)cc1

Key:
[1] = In vivo pharmacokinetics after IV injection in cannulated rats; conditions: Sprague Dawley, rat, plasma, 56 mg/kg conjugate
Experimental: PK assays on the conjugates of Example 5 were performed on cannulated Sprague Dawley rats. […] Blood samples were collected at 0, 1, 2, 4, 8, 12, 24, 48, 72, and 120 hours. At each timepoint a 300 μL blood sample was added to 30 μL of a 1M citrate/0.1% Pluronic® F68 solution, pH 4.5 to lower the pH and remove coagulation factors to give plasma.
A portion of the plasma samples were precipitated by addition of 3 parts acetonitrile and centrifuged at 16000×g for 10 minutes. The samples were analyzed by HPLC for PEG-peptide conjugate and PEG-remnant concentrations. Concentrations were calculated by comparison of peak areas to a standard curve.
A portion of the releasable plasma samples was analyzed by LC/MSMS for free octreotide (MedPace).
The volume of distribution (100 mL/kg) is also in line with previous PEG conjugate, typically measured at the approximate blood volume of the rat (70 mL/kg).

[2] = subcutaneous administration; cited from earlier work
somatostatin receptor 5 = somatostatin receptor 5 (Homo sapiens, UniProt P35346); conditions: relative to other somatostatin analogs; cited from earlier work
[3] = subcutaneous administration; cited from earlier work; remark: listed apart in the source

somatostatin receptor 5, sequence (P35346 whole entry): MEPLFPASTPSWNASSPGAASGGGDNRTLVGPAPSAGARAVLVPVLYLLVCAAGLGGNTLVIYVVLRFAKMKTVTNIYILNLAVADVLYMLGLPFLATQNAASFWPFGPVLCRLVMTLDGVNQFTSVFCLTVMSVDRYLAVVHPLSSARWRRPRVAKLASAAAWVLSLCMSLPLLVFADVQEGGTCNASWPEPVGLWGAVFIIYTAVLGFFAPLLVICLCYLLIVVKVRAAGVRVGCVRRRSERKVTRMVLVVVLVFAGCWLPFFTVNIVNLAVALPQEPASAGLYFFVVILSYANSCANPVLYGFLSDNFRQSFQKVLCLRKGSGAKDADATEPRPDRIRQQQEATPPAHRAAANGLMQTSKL

Row | Compound | half-life [1] [h] | average half-life of elimination from plasma [2] [h] | increased affinity to somatostatin receptor 5 than other somatostatin analogs (somatostatin receptor 5) [fold] | effective half-life [3] | volume of distribution [3] [L]
1 | C[C@@H](O)[C@@H]1NC(=O)[C@H](CCCCN)NC(=O)[C@@H](Cc2c[nH]c3ccccc23)NC(=O)[C@H](Cc2ccccc2)NC(=O)[C@@H](NC(=O)[C@H](N)Cc2ccccc2)CSSCC(C(=O)N[C@H](CO)[C@@H](C)O)NC1=O (relative stereo) [Octreotide, D-phenylalanyl-L-cysteinyl-L-phenylalanyl-D-tryptophyl-L-lysyl-L-threonyl-N-[2-hydroxy-1-(hydroxymethyl)propyl]-L-Cysteinamide, cyclic (2→7)-disulfide; [R—(R*,R*)]] | 50 | 1.7 | – | – | –
2 | NCCCC[C@@H]1NC(=O)[C@@H](Cc2c[nH]c3ccccc23)NC(=O)[C@H](c2ccccc2)NC(=O)[C@@H]2C[C@@H](OC(=O)NCCN)CN2C(=O)[C@H](Cc2ccccc2)NC(=O)[C@H](Cc2ccc(OCc3ccccc3)cc2)NC1=O [Pasireotide, (2-aminoethyl) carbamic acid (2R,5,8S,11S,14R,17S,19aS)-11-(4-aminobutyl)-5-benzyl-8-(4-benzyloxybenzyl)-14-(1H-indol-3ylmethyl)-4,7,10,13,16,19-hexaoxo-17-phenyloctadecahydro-3a,6,9,12,15,18-hexaazacyclopentacyclooctadecen-2-yl ester, di[(S)-2-aminosuccinic acid] salt] (cyclo([Hyp]([CO-Ethylenediamine])[Phg][dW]KY(Bn)F)) | – | – | 40 | approximately 12 h | > 100
